Ends that are not written are not given here.

The text below walks through data of patent US8921323B2, “Methods and compositions for modulating BCL-2 family polypeptides” (Dana Farber Cancer Institute, Inc., priority 2007, dated 2014).

Assay [1] relates to Pfeiffer lymphoma cell line which overexpresses MCL-1 and A1. The assay is described as follows: killing of Pfeiffer lymphoma cell line. The assay is classed as cell-based.
Assay [2] relates to Bax−/−Bak−/− mouse embryo fibroblasts reconstituted with BAXK21E. The assay is described as follows: apoptosis of BAXK21E-reconstituted DKO MEFs (annexin-V binding). The assay is classed as cell-based. The conditions noted are these: compared with wild-type BAX. An excerpt:
(§1) To determine if this single point mutation within the novel BAX binding site impacted the capacity to activate BAX in a cellular context, we retrovirally reconstituted Bax^−/−Bak^−/− mouse embryo fibroblasts (DKO MEFs) with either wild type or BAXK21E and monitored apoptosis induction in response to BIM SAHB. […] This decrease in BAXK21E-mediated apoptosis correlates with impaired activation of […] by BIM SAHB in both oligomerization and cytochrome c release assays (FIG. 15a, 15b).
To probe the broader physiologic impact of the novel BAX activation site, we examined the apoptotic response of DKO MEFs reconstituted with BAX and BAXK21E to staurosporine (STS), a general stimulus known to operate through endogenous BH3-only proteins, including BIM. K21E mutagenesis impaired STS-induced apoptosis, as monitored by annexin V binding over time (FIG. 15d). The reduced activity of BAXK21E was also reflected by impaired cytochrome c release, as detected by subcellular fractionation Western analysis and indirect immunofluorescence. The blunted response of BAXK21E-reconstituted DKO MEFs to STS is uniformly consistent with impaired activation of BAXK21E by BIM SAHB in oligomerization (FIG. 15a), cytochrome c release (FIG. 15b), and cell-based apoptosis assays (FIG. 15c). […]

The target in assay [3] is T1, BCL-2-related ovarian killer (BOK) (Homo sapiens, UniProt Q9UMX3).
T1 sequence (Q9UMX3 1-212): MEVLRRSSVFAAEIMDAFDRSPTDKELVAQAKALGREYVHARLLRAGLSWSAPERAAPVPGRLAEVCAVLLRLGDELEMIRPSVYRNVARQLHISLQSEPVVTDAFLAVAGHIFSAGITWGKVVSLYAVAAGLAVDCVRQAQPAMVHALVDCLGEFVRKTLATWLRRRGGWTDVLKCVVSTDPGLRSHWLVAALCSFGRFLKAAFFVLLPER
The assay is described as follows: binding of SAHB ligands to BOK.

The subject of assay [4] is MCL-1 overexpressing or otherwise chemoresistant cancer cells. The assay is described as follows: reactivating apoptosis of MCL-1 overexpressing or chemoresistant cancer cells. In kind it is cell-based. An excerpt:
Many cancer cells and their relapsed/chemoresistant variants achieve cellular immortality by massively overexpressing anti-apoptotic members of the BCL-2 family. Using BH3 mimetics and small molecules, anti-apoptotic inhibition is one mode of overcoming apoptotic blockade. However, when BH3 mimetics or small molecules have a specificity profile that cannot target a specific anti-apoptotic blockade, such as MCL-1 overexpression (Van Delft et al, Cancer Cell. 2006 Nov.; 10(5):389-99; Konopleva et al, Cancer Cell. 2006 Nov.; 10(5):375-88; Deng et al Cancer Cell. 2007 Aug.; 12(2):171-85), direct BAX modulation can circumvent, or synergize with, such apoptotic blockade for therapeutic benefit. […] Therefore, cancers or other diseased cells that either overexpress anti-apoptotic proteins such as MCL-1 and A1, or cancers or diseased cells that specifically down-regulate activator BH3-only proteins, like BIM, such as in Mantle Cell lymphoma (Tagawa et al Oncogene. 2005 Feb. 17; 24(8):1348-58; Mestre-Escorihuela, Blood. 2007 Jan. 1; 109(1):271-80) and cf. with mouse model of BIM-deletion, are ideally suited for BIM SAHB, or derivatives and mimetics thereof, to reactivate apoptosis through direct engagement of the novel BAX activation site and thereby induce apoptosis for therapeutic purposes and irrespective of the aforementioned apoptotic blockades.

A further assay concerns the target monomeric BAX (Homo sapiens, UniProt Q07812). The assay is described as follows: BAX oligomerization assay (size exclusion chromatography). In kind it is biochemical. The conditions noted are these: wild-type BAX, room temperature. An excerpt: In contrast to the stable inhibitory interactions of BIM BH3 with anti-apoptotic proteins, the BAX-activating interaction triggers a dynamic continuum of events that includes BAX conformational change and oligomerization. […] In monomeric BAX, the center of the loop weakly associates with residues Ile133 and Met 137 of the α6 helix (Suzuki & Tjandra, Cell 103 (4), 645-654 (2000)). Changes observed in the loop residues can readily be explained by the shift of the loop conformation into an open form upon BIM SAHB binding. Because loop displacement upon ligand engagement may initiate a conformational change of BAX, we investigated whether BIM SAHB binding could directly activate BAX in solution. We monitored both the conversion of BAX from monomer to oligomer by size-exclusion chromatography (SEC) and the exposure of its buried N-terminal residues using the 6A7 antibody, which selectively detects the conformational change associated with BAX activation (Hsu & Youle, The Journal of biological chemistry 272 (21), 13829-13834 (1997)). […] Thus, the transient stability of the BIM SAHB-BAX complex we observe by NMR correlates with the interaction-triggered BAX conformational change and oligomerization that we detect biochemically.
Oligomerization assay: BIM SAHB was added to a 200 μL solution (20 mM Hepes/KOH pH 7.2-7.4, 150 mM KCl) containing monomeric BAX (38 μM) at a ratio of 0.5:1, 1:1, 2:1 and 4:1 BIM SAHB:BAX. The mixtures and a sample of BAX monomer alone were incubated at 22° for 15 minutes and then subjected to analysis by size exclusion chromatography (SEC) using an SD75 column. […] Protein standards (GE Healthcare) were used to calibrate the molecular weights of gel filtration peaks. For time-dependent analysis, BIM SAHB was added to monomeric BAX at a ratio of 1:1, and the mixtures were analyzed by SEC after incubation for 30, 60, and 90 minutes at 22° C. As a baseline for comparison, Bax monomer alone was analyzed at time 0 and the above time points.
Background: SEC sorts molecules by how far they enter the pores of the column.

In assay [5] the test system is Bax−/−Bak−/− mouse embryo fibroblasts reconstituted with wild type BAX. As to the kind of experiment: apoptosis of BAX-reconstituted DKO MEFs (annexin-V binding). The assay is classed as cell-based.
Excerpt: as §1

A further assay has as its target BAX (Homo sapiens, UniProt Q07812). The assay is described as follows: liposomal release assay (FITC-dextran). The conditions noted are these: combination with BAX. The assay is classed as biochemical. The source says: (§2) To confirm that the SEC-based detection of BIM SAHB-induced BAX oligomerization reflects functional activation of BAX for its release activity, we performed correlative liposomal and mitochondrial assays. […] Thus, in four distinct in vitro assays that measure ligand-induced BAX activation, BIM SAHB directly and dose-responsively triggered BAX.
Liposomal Release Assay: Another assay that can be used to determine modulation of the BCL-2 family polypeptide is a liposomal release assay that simulates the mitochondria but only includes the essential components for BAX/BAK/BOK-induced release. […] Lipid concentration is determined by measuring vesicular phosphate content (Böttcher, C. J. F. et al. (1961) Anal Chim Acta 24, 203-204). The fluorescence dequenching assay is adapted from previous reports (Kuwana, T. et al. (2002) Cell 111(3), 331-342) (Terrones, O., et al. (2004) J Biol Chem 279(29), 30081-30091). The release of FITC-labeled dextran-10 kD from LUVs is monitored using a FluoroMax-2 spectrofluorometer (SPEX), in a thermostated 1 cm path length quartz cuvette with constant stirring at 37° C. […]

Assay [6] relates to BAX-mediated cytochrome c release, BAX/BAK doubly-deficient mouse liver mitochondria. As to the kind of experiment: mitochondrial cytochrome c release assay. The assay is classed as biochemical. As to conditions: Alb-cre pos Bax flox/− Bak−/− mouse liver mitochondria plus BAX.
Excerpt: as §2
Mitochondrial Release Assay: In order to test activation/inhibition of a BCL-2 family polypeptide interactions on mitochondrial apoptosis induction, a cytochrome c release assay is used that employs mouse liver mitochondria from Bak^−/− mice or Alb-cre^posBax^flox/−Bak^−/− mice, added recombinant BCL-2 family polypeptide, e.g., BAX, BAK, or BOK (50 nM) with or without increasing doses of SAHBs (50-500 nM), and an ELISA-based read-out of cytochrome c. Negative controls include recombinant protein alone, compounds alone, vehicle treatment, point mutant SAHBs, and blockade using anti-apoptotic proteins, such as BCL-XL ΔC.

Sequence of monomeric BAX (Q07812 whole entry): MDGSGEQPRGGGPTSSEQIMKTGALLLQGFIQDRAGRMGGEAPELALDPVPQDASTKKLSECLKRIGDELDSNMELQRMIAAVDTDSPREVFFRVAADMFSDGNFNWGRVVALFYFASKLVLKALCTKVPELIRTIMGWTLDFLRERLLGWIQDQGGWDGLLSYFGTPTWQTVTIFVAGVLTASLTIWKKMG
Sequence of BAX (Q07812 whole entry): as above

Consider `CN(C)CC[C@H](CSc1ccccc1)Nc1ccc(S(=O)(=O)NC(=O)c2ccc(N3CCN(Cc4ccccc4-c4ccc(Cl)cc4)CC3)cc2)cc1[N+](=O)[O-]` [ABT-737, reference compound], for which the “cell killing / sensitivity” value in assay [1] was “resistant”.
As to `CN[C@@H]1C[C@H]2O[C@@](C)([C@@H]1OC)n1c3ccccc3c3c4c(c5c6ccccc6n2c5c31)C(=O)NC4` [staurosporine, reference compound], in assay [2], the “apoptosis induction, annexin-V binding” value is recorded as “impaired”.
“BID SAHB: hydrocarbon-stapled BID BH3 polypeptide (FIG. 9, SEQ ID NO:4) (ESQEDIIRNIARHLAQVGDEMDRSI; staple (positions not given here); also: hydrocarbon staple, positions not given here; listed as Homo sapiens)”: the “binding to BOK” value in assay [3] is “bound”. Also, the “potency in reactivating apoptosis relative to ABT-737 or BAD SAHB” value in assay [4] was “more potent”.
“BIM SAHB R153D: BIM SAHB with reverse-polarity point mutation R153D at the BAX interaction surface (FIG. 13a) (EIWIAQELDRIGDEFNAYYARR; staple (positions not given here); also: hydrocarbon staple, positions not given here)”: in the assay with monomeric BAX, the “BAX oligomerization (monomer to oligomer, SEC)” value (from here on “BAX oligomerization”) is on record as “abrogated”. Further, the “apoptosis induction, annexin-V binding” value in assay [5] and in assay [2] was “abolished” in each case. The “liposomal release of entrapped FITC-dextran” value with BAX is “abrogation of activity”. Also, the “BAX-mediated cytochrome c release” value in assay [6] is “abrogated”.
For “D157R: BIM SAHB with reverse-polarity point mutation D157R (FIG. 13a) (EIWIAQELRRIGREFNAYYARR; staple (positions not given here); also: hydrocarbon staple, positions not given here)”, the “BAX oligomerization” value in the assay with monomeric BAX is “abrogated”. Besides, the “BAX-mediated cytochrome c release” value in assay [6] is “abrogated”.
As to “I155E: BIM SAHB with hydrophobic to charged point mutation I155E (FIG. 13a) (EIWIAQELRREGDEFNAYYARR; staple (positions not given here); also: hydrocarbon staple, positions not given here)”, the “BAX oligomerization” value with monomeric BAX is “abrogated”. Also, the “BAX-mediated cytochrome c release” value in assay [6] was “abrogated”.
